# Biological target: T1, PLK4 (Homo sapiens, UniProt O00444)
# T1 construct: purchased Thermo Fisher Scientific (Life Technologies) SelectScreen
# Test: SelectScreen LanthaScreen
# Assay type: binding
# Conditions: read-out: % displacement
# In short: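 Percent values come from Thermo SelectScreen profiling of NU5455, combining activity and binding assays. CSF1R was run in Z'LYTE format at Km app ATP, and CAMK1 in Adapta format with ATP listed at 10.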
# T1 sequence (O00444 whole entry): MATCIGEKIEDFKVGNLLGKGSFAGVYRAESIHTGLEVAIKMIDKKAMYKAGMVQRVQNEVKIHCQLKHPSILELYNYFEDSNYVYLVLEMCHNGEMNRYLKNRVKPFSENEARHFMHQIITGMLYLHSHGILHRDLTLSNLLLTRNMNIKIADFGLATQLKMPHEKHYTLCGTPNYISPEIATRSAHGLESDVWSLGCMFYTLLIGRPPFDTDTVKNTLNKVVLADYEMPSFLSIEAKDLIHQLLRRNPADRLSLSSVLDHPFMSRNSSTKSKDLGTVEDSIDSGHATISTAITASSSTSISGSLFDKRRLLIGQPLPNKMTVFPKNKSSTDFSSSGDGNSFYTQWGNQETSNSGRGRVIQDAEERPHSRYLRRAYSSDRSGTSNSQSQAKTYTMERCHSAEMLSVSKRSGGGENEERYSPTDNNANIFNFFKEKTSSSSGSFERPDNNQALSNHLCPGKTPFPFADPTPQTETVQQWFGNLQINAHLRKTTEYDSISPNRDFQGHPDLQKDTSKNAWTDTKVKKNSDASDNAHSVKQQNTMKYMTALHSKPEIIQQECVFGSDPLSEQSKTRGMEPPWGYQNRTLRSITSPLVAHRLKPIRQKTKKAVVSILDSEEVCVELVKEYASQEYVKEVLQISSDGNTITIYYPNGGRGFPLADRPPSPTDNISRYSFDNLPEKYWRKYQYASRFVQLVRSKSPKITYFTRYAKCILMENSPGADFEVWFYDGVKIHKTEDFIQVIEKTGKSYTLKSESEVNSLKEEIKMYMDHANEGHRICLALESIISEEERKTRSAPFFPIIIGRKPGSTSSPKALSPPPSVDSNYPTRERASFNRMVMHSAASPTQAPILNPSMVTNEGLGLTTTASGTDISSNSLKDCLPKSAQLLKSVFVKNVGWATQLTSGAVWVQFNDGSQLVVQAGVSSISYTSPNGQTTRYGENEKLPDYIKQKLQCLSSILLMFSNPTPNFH
compound,measurement,value
CN(C(=O)CN1CCOCC1)c1ccc2sc3c(-c4cccc5c(=O)cc(N6CC7CCC(C6)O7)oc45)cccc3c2c1 [NU5455],inhibition at 1 µM,-2.8%

# — article PMC6934184, “Selective DNA-PKcs inhibition extends the therapeutic index of localized radiotherapy and chemotherapy” (The Journal of Clinical Investigation, 2019)
